“Also recorded” adds a separate entry of the source.
Assays:
[1] = system: human red blood cells (hRBCs); assay: Haemoglobin release from human red blood cells; assay type: cell-based; settings: red cells of human
Procedure, shortened: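 Washed fresh human RBCs at 1% (v/v) in PBS were incubated with 2-fold serial peptide dilutions (DMSO vehicle) for 1 h at 37 °C, then centrifuged. Haemoglobin in the supernatant was read at 415 nm. % hemolysis was taken relative to DMSO blank and 1% Triton X-100 complete lysis.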

[2] = Peptide binding onto membranes (Trp fluorescence); settings: neutral POPC vesicles; in words
[3] = K+ release from liposomes, lipid not specified; assay type: biochemical; settings: in words
Method: With the D-Lys residues incorporated towards the C-terminus, the gA peptide analogs described herein display amphipathic sequences. Since many amphipathic peptides are known to cause membrane damage through a detergent-like mechanism instead of forming specific channels,[19] it was further examined whether it is the case with the gA peptide analogs provided herein. Toward this end, the ion selectivity of gA-3, 4, and 5 was assessed by using liposomes encapsulating K+ and Tb3+ respectively. […] The wild type like channel structure of the D-Lys mutants is further supported by the fact that gA-5 and gA-WT share similar signatures in their circular dichroism spectra (FIG. 11). This exclusive leakage of monovalent cations presents a great advantage of the gA analog peptides described herein in comparison to the majority of AMPs, which often cause catastrophic membrane collapse to release all bacterial cellular content, leading to potential complications of over-stimulated immune response.
The K+ leakage from liposomes was determined by a potassium ion selective electrode (K-ISE, Cole-Parmer, Vernon Hills, Ill.). The electrode was calibrated each day before experiments. A liposome solution in Buffer A (2 mL, 500 μM POPC or POPC/POPG⊃10 mM HEPES, 150 mM KCl, pH 7.0) was stirred at constant speed and peptide at various concentration (1 μL in DMSO) was added accumulatively. Three minutes after each peptide addition, the K+ concentration was measured and reported as the K-ISE potential. At the end of each experiment, gA-WT stock (1 μL, 1 mM) was added to induce 100% K+ leakage. The potential reported by the K-ISE was plotted against peptide concentration after the background noise (caused by DMSO addition) was subtracted and normalized to 0-100%.

[4] = Peptide distribution in EYPC LUVs by Trp fluorescence; assay type: binding; settings: peptide added to LUVs; in words
Method: The peptides distribution was determined by monitoring Trp fluorescence and the channel activity was determined by monitoring the proton leakage from LUVs using a pH sensitive fluorescence dye HPTS. […]

[5] = system: Streptococcus pyogenes (ATCC 19615)

## CC(C)C[C@@H](NC(=O)[C@H](C)NC(=O)CNC(=O)[C@@H](NC=O)C(C)C)C(=O)N[C@@H](C)C(=O)N[C@@H](C(=O)N[C@H](C(=O)N[C@@H](C(=O)N[C@@H](Cc1c[nH]c2ccccc12)C(=O)N[C@H](CCCCN)C(=O)N[C@@H](Cc1c[nH]c2ccccc12)C(=O)N[C@H](CCCCN)C(=O)N[C@@H](Cc1c[nH]c2ccccc12)C(=O)N[C@H](CCCCN)C(=O)N[C@@H](Cc1c[nH]c2ccccc12)C(=O)NCCO)C(C)C)C(C)C)C(C)C (racemic) [gA-5, formyl-V-G-A-dL-A-dV-V-dV-W-dK-W-dK-W-dK-W-NHCH2CH2OH]
[1]
  HC50 (50% haemoglobin leakage relative to 1% TritonX-100): >100 µM
[2]
  apparent dissociation constant (Kd) / binding: no detectable binding
[3]
  K+ release from LUVs: potent activity in K+ release; also recorded: complete K^+ leakage
[4]
  binding to EYPC LUVs: neither peptides bound to EYPC LUVs upon addition
[5]; ATCC 19615
  MICs S. Pyogenes: 0.62 µM
[5]; S. Pyogenes
  MIC relative to wild-type Gramicidin A: equivalent to or ˜2-fold higher
[5]; S. pyogenes, in words
  antibacterial activity: highly potent

Reference: patent US9243037B2, “Gramicidin a mutants that function as antibiotics with improved solubility and reduced toxicity” (Trustees of Boston College, priority 2011, dated 2016)
